# Patent publication US12398120B2, “Substituted hydantoinamides as ADAMTS7 antagonists” (BAYER AKTIENGESELLSCHAFT, priority 2019, dated 2025)
# Biological target: ADAMTS4 (Homo sapiens (Human), UniProt O75173)
# Assay: Selectivity assay for ADAMTS-7 modulators: ADAMTS4 (FRET substrate)
# Type: biochemical
# Settings: ADAMTS4 (R&D 4307-AD) 50 nM, substrate Dabcyl-EEVKAKVQPY-Glu(Edans)-NH2 1 μM, 120 min, 32° C.
# Experimental: 1 μl test compound solution (dissolved in DMSO, at the corresponding concentration) or pure DMSO as a control was added per well. The enzymatic reaction was initiated by addition of 25 μl of the respective concentration of the respective FRET substrate (see table 2 below) in reaction buffer.
# The increase of fluorescence intensity was measured in appropriate fluorescence plate reader (e.g. TECAN Ultra) using the respective wavelengths for excitation and emission. IC50 values were calculated from percentage of inhibition of enzyme activity as a function of test compound concentration.
# ADAMTS4, sequence (O75173 213-685): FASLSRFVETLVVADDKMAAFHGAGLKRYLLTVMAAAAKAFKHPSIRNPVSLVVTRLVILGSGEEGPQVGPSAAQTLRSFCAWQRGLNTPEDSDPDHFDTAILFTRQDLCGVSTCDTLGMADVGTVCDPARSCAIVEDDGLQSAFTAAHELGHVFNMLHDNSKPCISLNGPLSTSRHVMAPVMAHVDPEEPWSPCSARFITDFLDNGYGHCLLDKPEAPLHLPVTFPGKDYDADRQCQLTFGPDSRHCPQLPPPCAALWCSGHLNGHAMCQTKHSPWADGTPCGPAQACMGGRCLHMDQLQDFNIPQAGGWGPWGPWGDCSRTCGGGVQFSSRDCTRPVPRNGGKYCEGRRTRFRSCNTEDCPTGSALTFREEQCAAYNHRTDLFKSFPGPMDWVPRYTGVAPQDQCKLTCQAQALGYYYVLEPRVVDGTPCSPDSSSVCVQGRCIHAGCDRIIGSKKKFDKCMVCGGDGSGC
row,SMILES,IC50 [µM]
1,"O=C1NC(=O)C(CNC(=O)c2ccccc2-c2ccc(C(F)(F)F)cc2)(c2ccnn2CC(F)(F)F)N1 (racemic) [Example 6, Rac-N-({2,5-Dioxo-4-[1-(2,2,2-Trifluoroethyl)-1H-Pyrazol-5-Yl]Imidazolidin-4-Yl}Methyl)-4′-(Trifluoromethyl)[Biphenyl]-2-Carboxamide]",6.2
2,"O=C1NC(=O)C(CNC(=O)c2ccccc2-c2ccc(C(F)(F)F)cc2)(c2ccccc2)N1 (racemic) [Example 12, Rac-N-[(2,5-Dioxo-4-Phenylimidazolidin-4-Yl)Methyl]-4′-(Trifluoromethyl)[Biphenyl]-2-Carboxamide]",> 50
3,"Cc1nc(C)c(C2(CNC(=O)c3ccccc3-c3ccc(C(F)(F)F)cc3)NC(=O)NC2=O)s1 (racemic) [Example 15, Rac-N-{[4-(2,4-Dimethyl-1,3-Thiazol-5-Yl)-2,5-Dioxoimidazolidin-4-Yl]Methyl}-4′-(Trifluoromethyl)[Biphenyl]-2-Carboxamide]",7.75
4,"Cc1c(C2(CNC(=O)c3ccc(Cl)cc3-c3ccc(C(F)(F)F)cc3)NC(=O)NC2=O)cnn1C (racemic) [Example 33, Rac-5-Chloro-N-{[4-(1,5-Dimethyl-1H-Pyrazol-4-Yl)-2,5-Dioxoimidazolidin-4-Yl]Methyl}-4′-(Trifluoromethyl)[Biphenyl]-2-Carboxamide]",5.2
5,"Cc1nc(C)c(C2(CNC(=O)c3ccccc3-c3ccc(C(F)(F)F)nc3)NC(=O)NC2=O)s1 (racemic) [Example 34, Rac-N-{[4-(2,4-Dimethyl-1,3-Thiazol-5-Yl)-2,5-Dioxoimidazolidin-4-Yl]Methyl}-2-[6-(Trifluoromethyl)Pyridin-3-Yl]Benzamide]",8.9
6,"Cc1cn(C)nc1C1(CNC(=O)c2ccccc2-c2ccc(C(F)(F)F)nc2)NC(=O)NC1=O (racemic) [Example 35, Rac-N-{[4-(1,4-Dimethyl-1H-Pyrazol-3-Yl)-2,5-Dioxoimidazolidin-4-Yl]Methyl}-2-[6-(Trifluoromethyl)Pyridin-3-Yl]Benzamide]",10
7,"O=C1NC(=O)C(CNC(=O)c2ccccc2-c2ccc(C(F)(F)F)nc2)(c2ccnn2C2CC2)N1 (racemic) [Example 40, Rac-N-{[4-(1-Cyclopropyl-1H-Pyrazol-5-Yl)-2,5-Dioxoimidazolidin-4-Yl]Methyl}-2-[6-(Trifluoromethyl)Pyridin-3-Yl]Benzamide]",21
8,"Cc1nocc1C1(CNC(=O)c2ccccc2-c2ccc(C(F)(F)F)nc2)NC(=O)NC1=O (racemic) [Example 41, Rac-N-{[4-(3-Methyl-1,2-Oxazol-4-Yl)-2,5-Dioxoimidazolidin-4-Yl]Methyl}-2-[6-(Trifluoromethyl)Pyridin-3-Yl]Benzamide]",30
9,"Cc1nscc1C1(CNC(=O)c2ccccc2-c2ccc(C(F)(F)F)nc2)NC(=O)NC1=O (racemic) [Example 49, Rac-N-{[4-(3-Methyl-1,2-Thiazol-4-Yl)-2,5-Dioxoimidazolidin-4-Yl]Methyl}-2-[6-(Trifluoromethyl)Pyridin-3-Yl]Benzamide]",22
10,"O=C1NC(=O)C(CNC(=O)c2ccccc2-c2ccc(C(F)(F)F)nc2)(c2ccccc2)N1 (racemic) [Example 50, Rac-N-[(2,5-Dioxo-4-Phenylimidazolidin-4-Yl)Methyl]-2-[6-(Trifluoromethyl)Pyridin-3-Yl]Benzamide]",43
11,"Cc1cnn(C)c1C1(CNC(=O)c2ccccc2-c2ccc(C(F)(F)F)nc2)NC(=O)NC1=O (racemic) [Example 52, Rac-N-{[4-(1,4-Dimethyl-1H-Pyrazol-5-Yl)-2,5-Dioxoimidazolidin-4-Yl]Methyl}-2-[6-(Trifluoromethyl)Pyridin-3-Yl]Benzamide]",19
12,"Cc1nsnc1C1(CNC(=O)c2ccccc2-c2ccc(C(F)(F)F)nc2)NC(=O)NC1=O (racemic) [Example 53, Rac-N-{[4-(4-Methyl-1,2,5-Thiadiazol-3-Yl)-2,5-Dioxoimidazolidin-4-Yl]Methyl}-2-[6-(Trifluoromethyl)Pyridin-3-Yl]Benzamide]",41
13,"Cc1nn(C)cc1C1(CNC(=O)c2ccccc2-c2ccc(C(F)(F)F)nc2)NC(=O)NC1=O (racemic) [Example 55, Rac-N-{[4-(1,3-Dimethyl-1H-Pyrazol-4-Yl)-2,5-Dioxoimidazolidin-4-Yl]Methyl}-2-[6-(Trifluoromethyl)Pyridin-3-Yl]Benzamide]",30
14,"CCCC1(CNC(=O)c2ccccc2-c2ccc(C(F)(F)F)nc2)NC(=O)NC1=O (racemic) [Example 57, Rac-N-[(2,5-Dioxo-4-Propylimidazolidin-4-Yl)Methyl]-2-[6-(Trifluoromethyl)Pyridin-3-Yl]Benzamide]",> 50

# Next, values leading:
row,IC50 [µM],SMILES
1,6.5,"Cc1scnc1C1(CNC(=O)c2ccccc2-c2ccc(C(F)(F)F)cc2)NC(=O)NC1=O (racemic) [Example 1, Rac-N-{[4-(5-Methyl-1,3-Thiazol-4-Yl)-2,5-Dioxoimidazolidin-4-Yl]Methyl}-4′-(Trifluoromethyl)[Biphenyl]-2-Carboxamide]"
2,19,"CCn1nccc1C1(CNC(=O)c2ccccc2-c2ccc(C(F)(F)F)cc2)NC(=O)NC1=O (racemic) [Example 4, Rac-N-{[4-(1-Ethyl-1H-Pyrazol-5-Yl)-2,5-Dioxoimidazolidin-4-Yl]Methyl}-4′-(Trifluoromethyl)[Biphenyl]-2-Carboxamide]"
3,12,"Cc1ncsc1C1(CNC(=O)c2ccccc2-c2ccc(C(F)(F)F)cc2)NC(=O)NC1=O (racemic) [Example 5, Rac-N-{[4-(4-Methyl-1,3-Thiazol-5-Yl)-2,5-Dioxoimidazolidin-4-Yl]Methyl}-4′-(Trifluoromethyl)[Biphenyl]-2-Carboxamide]"
4,17,"Cc1c(C2(CNC(=O)c3ccccc3-c3ccc(C(F)(F)F)cc3)NC(=O)NC2=O)cnn1C (racemic) [Example 14, Rac-N-{[4-(1,5-Dimethyl-1H-Pyrazol-4-Yl)-2,5-Dioxoimidazolidin-4-Yl]Methyl}-4′-(Trifluoromethyl)[Biphenyl]-2-Carboxamide]"
5,> 50,"CCCC1(CNC(=O)c2ccccc2-c2ccc(C(F)(F)F)cc2)NC(=O)NC1=O (racemic) [Example 24, Rac-N-[(2,5-Dioxo-4-Propylimidazolidin-4-Yl)Methyl]-4′-(Trifluoromethyl)[Biphenyl]-2-Carboxamide]"
6,> 50,"CC(C)(C)C1(CNC(=O)c2ccccc2-c2ccc(C(F)(F)F)cc2)NC(=O)NC1=O (racemic) [Example 25, Rac-N-[(4-Tert-Butyl-2,5-Dioxoimidazolidin-4-Yl)Methyl]-4′-(Trifluoromethyl)[Biphenyl]-2-Carboxamide]"
7,> 50,"O=C1NC(=O)C(CNC(=O)c2ccccc2-c2ccc(C(F)(F)F)cc2)(C2CCOCC2)N1 (racemic) [Example 29, Rac-N-{[2,5-Dioxo-4-(Tetrahydro-2H-Pyran-4-Yl)Imidazolidin-4-Yl]Methyl}-4′-(Trifluoromethyl)[Biphenyl]-2-Carboxamide]"
8,45,"O=C1NC(=O)C(CNC(=O)c2ccccc2-c2ccc(C(F)(F)F)cc2)(c2cnccn2)N1 (racemic) [Example 30, Rac-N-{[2,5-Dioxo-4-(Pyrazin-2-Yl)Imidazolidin-4-Yl]Methyl}-4′-(Trifluoromethyl)[Biphenyl]-2-Carboxamide]"
9,35,"Cc1nonc1C1(CNC(=O)c2ccccc2-c2ccc(C(F)(F)F)cc2)NC(=O)NC1=O (racemic) [Example 32, Rac-N-{[4-(4-Methyl-1,2,5-Oxadiazol-3-Yl)-2,5-Dioxoimidazolidin-4-Yl]Methyl}-4′-(Trifluoromethyl)[Biphenyl]-2-Carboxamide]"
10,> 50,"O=C1NC(=O)C(CNC(=O)c2ccccc2-c2ccc(C(F)(F)F)nc2)(C2CCOCC2)N1 (racemic) [Example 36, Rac-N-{[2,5-Dioxo-4-(Tetrahydro-2H-Pyran-4-Yl)Imidazolidin-4-Yl]Methyl}-2-[6-(Trifluoromethyl)Pyridin-3-Yl]Benzamide]"
11,10,"Cc1cn(C)nc1C1(CNC(=O)c2ccccc2-c2ccc(C(F)(F)F)cc2)NC(=O)NC1=O (racemic) [Example 39, Rac-N-{[4-(1,4-Dimethyl-1H-Pyrazol-3-Yl)-2,5-Dioxoimidazolidin-4-Yl]Methyl}-4′-(Trifluoromethyl)[Biphenyl]-2-Carboxamide]"
12,> 50,"O=C1NC(=O)C(CNC(=O)c2ccccc2-c2ccc(C(F)(F)F)cc2)(c2cccnn2)N1 (racemic) [Example 42, Rac-N-{[2,5-Dioxo-4-(Pyridazin-3-Yl)Imidazolidin-4-Yl]Methyl}-4′-(Trifluoromethyl)[Biphenyl]-2-Carboxamide]"
13,28,"Cc1ncoc1C1(CNC(=O)c2ccccc2-c2ccc(C(F)(F)F)cc2)NC(=O)NC1=O (racemic) [Example 43, Rac-N-{[4-(4-Methyl-1,3-Oxazol-5-Yl)-2,5-Dioxoimidazolidin-4-Yl]Methyl}-4′-(Trifluoromethyl)[Biphenyl]-2-Carboxamide]"
14,11,"Cc1conc1C1(CNC(=O)c2ccccc2-c2ccc(C(F)(F)F)cc2)NC(=O)NC1=O (racemic) [Example 44, Rac-N-{[4-(4-Methyl-1,2-Oxazol-3-Yl)-2,5-Dioxoimidazolidin-4-Yl]Methyl}-4′-(Trifluoromethyl)[Biphenyl]-2-Carboxamide]"
15,> 50,"O=C1NC(=O)C(CNC(=O)c2ccccc2-c2ccc(C(F)(F)F)cc2)(C2CCCC2)N1 (racemic) [Example 48, Rac-N-[(4-Cyclopentyl-2,5-Dioxoimidazolidin-4-Yl)Methyl]-4′-(Trifluoromethyl)[Biphenyl]-2-Carboxamide]"
16,> 50,"CC(C)CCC1(CNC(=O)c2ccccc2-c2ccc(C(F)(F)F)cc2)NC(=O)NC1=O (racemic) [Example 58, Rac-N-{[4-(3-Methylbutyl)-2,5-Dioxoimidazolidin-4-Yl]Methyl}-4′-(Trifluoromethyl)[Biphenyl]-2-Carboxamide]"
